Measurements from PubChem BioAssay (NCI).
Several values for one entry are separate records, joined by “and”; a condition that tells them apart may be missing. Identical values can stand only once.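 96-well plates; 48 h exposure; 5 concentrations. Endpoints by linear interpolation between flanking doses. Not reached: highest tested concentration assigned. The concentration for 50% growth inhibition is given as GI50. At the TGI there is no net growth.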 *1 amine or outer side, *2 acyl side, *3 side chain or, on linkers, in order; H or OH if unused. Where a SMILES comes first, the peptide text is derived from it. [ ]: non-standard residue; d: D form. X56 = CC[C@H](C)[C@H](OC(=O)[C@@H](C)[C@@H](CC)N[*:1])C(=O)[*:2]; X32 = C[C@H](N[*:1])C(=O)C(C)(C)C(=O)[*:2]; NMeY = CN[C@@H](Cc1ccc(O)cc1)C(=O)O; NMeL = CN[C@@H](CC(C)C)C(=O)O; NMeV = CN[C@H](C(=O)O)C(C)C

What was measured:
Assay in all cases: NCI tumour cell line growth inhibition, 48 h
MOLT-4 leukemia = tested on: MOLT-4 leukemia
TK-10 renal = tested on: TK-10 renal
HCT-15 colon = tested on: HCT-15 colon
A498 renal = tested on: A498 renal
SK-MEL-28 melanoma = tested on: SK-MEL-28 melanoma
EKVX NSCLC = tested on: EKVX NSCLC
UACC-62 melanoma = tested on: UACC-62 melanoma
NCI-H460 lung = tested on: NCI-H460 lung
OVCAR-3 ovarian = tested on: OVCAR-3 ovarian
HS 578T breast = tested on: HS 578T breast

Row | Compound | TGI (MOLT-4 leukemia) | TGI (TK-10 renal) | TGI (HCT-15 colon) | TGI (A498 renal) | TGI (SK-MEL-28 melanoma) | TGI (EKVX NSCLC) | TGI (UACC-62 melanoma) | TGI (NCI-H460 lung) | TGI (OVCAR-3 ovarian) | GI50 (MOLT-4 leukemia) | GI50 (TK-10 renal) | GI50 (HCT-15 colon) | GI50 (A498 renal) | GI50 (SK-MEL-28 melanoma) | GI50 (EKVX NSCLC) | GI50 (UACC-62 melanoma) | GI50 (OVCAR-3 ovarian) | GI50 (HS 578T breast) | TGI (HS 578T breast) | GI50 (NCI-H460 lung)
1 | CC/C=C/c1cc2cc[nH]c2c2c1C(C)C[C@@H]2C (some centres not stated) | 53.3 µM | > 100 µM | 82.5 µM | 32.7 µM | 84.4 µM | > 100 µM | 41.8 µM | 65.3 µM | 40.5 µM |  |  |  |  |  |  |  |  |  |  | 
2 | CC[C@H](C)[C@@H]1OC(=O)[C@@H](C)[C@@H](CC)NC(=O)[C@H](C)NC(=O)C(C)(C)C(=O)[C@H](C)NC(=O)[C@H](Cc2ccc(OC)cc2)N(C)C(=O)[C@H](C(C)C)N(C)C(=O)CNC(=O)[C@H](CC(C)C)N(C)C(=O)CNC1=O (cyclo(A[X56]G[NMeL]G[NMeV][NMeY](Me)[X32])) | 0.784 µM | 0.299 µM and 0.0735 µM | > 34.2 µM | 1.38 µM and 0.197 µM | 0.165 µM | 1.82 µM and 8.44 µM | 5.28 µM and 5.31 µM |  | 0.197 µM and 0.307 µM | 0.0807 µM | 0.0196 µM | 0.222 µM | 0.0398 µM | 72.7 nM and < 16.4 nM | 66.8 nM | 0.111 µM | 0.0304 µM |  |  | 
3 | O=C(NCc1ccncc1)C1COc2cc(-c3cc(=O)c4ccccc4o3)ccc2O1 (configuration not stated) | > 100 µM | > 100 µM | > 100 µM |  | > 100 µM | > 100 µM | > 100 µM | > 100 µM | > 100 µM |  |  |  |  |  |  |  |  |  |  | 
4 | CC(=O)/C=C/c1ccc(C)cc1 | > 100 µM | > 100 µM | > 100 µM | > 100 µM | > 100 µM | > 100 µM | > 100 µM | > 100 µM | > 100 µM |  |  |  |  |  |  |  |  |  |  | 
5 | CC(C)CN(CC(C)C)C(=O)C1CCCC[C@@H]1C(=O)O (some centres not stated) | > 100 µM | > 100 µM | > 100 µM | > 100 µM | > 100 µM | > 100 µM | > 100 µM | > 100 µM | > 100 µM |  |  |  |  |  |  |  |  |  |  | 
6 | c1ccc(COC2(OCc3ccccc3)CC3OC2C2NN=NC32)cc1 (configuration not stated) | 37.9 µM |  | 90.6 µM | > 100 µM | 35.4 µM |  | 46.6 µM | > 100 µM | 33.8 µM |  |  |  |  |  |  |  |  |  |  | 
7 | Cc1c2c(cc3c(=O)ccn(CCN(C)C)c13)c(=O)ccn2CCN(C)C | 13.6 µM | 51.3 µM | 24.1 µM | 38 µM | 35.5 µM | 29 µM | 31.6 µM | 14.1 µM | 34.9 µM |  |  |  |  |  |  |  |  |  |  | 
8 | CCSc1nnc(-c2ccc3ccccc3c2O)n1-c1ccc(Cl)cc1 |  |  | > 100 µM | > 100 µM | > 100 µM |  | > 100 µM | > 100 µM | > 100 µM |  |  | 3.13 µM | > 100 µM | > 100000 nM |  | 4.6 µM | 29.4 µM | 85.4 µM | > 100 µM | 3.27 µM
9 | COc1cc(Nc2nc3ccc(C(F)(F)F)cc3nc2-c2ccccc2)cc(OC)c1OC | > 100 µM | > 100 µM | > 100 µM | 78 µM | > 100 µM | 79.7 µM | > 100 µM | 32.3 µM | > 100 µM |  |  |  |  |  |  |  |  |  |  | 
10 | O=C(/C=C/c1ccccc1Cl)c1ccc(Cl)cc1Cl | 26 µM | 31.7 µM | 25.4 µM | 33.3 µM | 24.8 µM | 32.9 µM | 27.6 µM | 31.6 µM | 31.6 µM |  |  |  |  |  |  |  |  |  |  | 
11 | O=C(c1ccc(Cl)cc1)c1ccc(OCCSCCCCCCCCCCSCCOc2ccc(C(=O)c3ccc(Cl)cc3)cc2)cc1 | > 100 µM | > 100 µM | > 100 µM | > 100 µM | > 100 µM | > 100 µM | > 100 µM | > 100 µM | > 100 µM |  |  |  |  |  |  |  |  |  |  | 
12 | N#CC1CC2(C(=O)C1=O)c1ccccc1-c1ccccc12 (configuration not stated) | > 100 µM | > 100 µM | > 100 µM | > 100 µM | > 100 µM | > 100 µM | > 100 µM | > 100 µM | > 100 µM |  |  |  |  |  |  |  |  |  |  | 
13 | C1COCCOCCOCCOCCO1.CC(=O)[CH-]C(C)=O.CC(=O)[CH-]C(C)=O.CC(=O)[CH-]C(C)=O.[V] | 41.4 µM | 52 µM | 57.9 µM | 66.3 µM | 23.9 µM |  | 17.4 µM | 99.4 µM | 32.3 µM | 20.6 µM | 14.1 µM | 20.7 µM | 25 µM |  |  | 4.25 µM | 13.7 µM |  |  | 22.7 µM
14 | COC1=C(Br)C(=O)C2=C(C1=O)C1C3=C(C(=O)C=CC3=O)C2c2ccccc21 (configuration not stated) | > 100 µM | 43.5 µM | 42.6 µM |  | > 100 µM | 22.2 µM | 27.8 µM | > 100 µM | 28.3 µM | 4.99 µM | 23.8 µM | 20 µM |  | 30700 nM | 5810 nM | 11.2 µM | 5.43 µM | 4.82 µM | > 100 µM | 33.3 µM
15 | Cc1cc2cn3c4cccnc4[nH]c(=O)c3c2cc1C | 4.53 µM | 3.91 µM | 2.87 µM | 18.5 µM | 2.95 µM |  | 2.78 µM |  | 3.22 µM | 2.25 µM | 2.27 µM | 1.41 µM | 3.8 µM | 1530 nM |  | 1.38 µM | 1.77 µM | 1.85 µM | 4.38 µM | 
16 | O=c1c2cccnc2ncn1CCN1CCCC1 | > 100 µM | > 100 µM |  |  | > 100 µM | > 100 µM | > 100 µM | > 100 µM | > 100 µM |  |  |  |  |  |  |  |  |  |  | 
17 | O=c1c2ccccc2nc(-c2cccc(Cl)c2)n1NCC1(O)OCC(O)C(O)C1O (configuration not stated) | > 100 µM |  | > 100 µM | > 100 µM | > 100 µM | > 100 µM | > 100 µM | > 100 µM | > 100 µM |  |  |  |  |  |  |  |  |  |  | 
18 | S=c1nc(N2CCCCC2)ss1 | 33.3 µM | > 100 µM | 62.6 µM | 43.3 µM | 36.4 µM | 55.8 µM | 35.4 µM | 80.5 µM |  |  |  |  |  |  |  |  |  |  |  | 
19 | CCC(C(=O)c1ccccc1)C(CCCC(=O)Nc1c(C)cccc1C)N=O (configuration not stated) | > 100 µM | > 100 µM | > 100 µM | > 100 µM | > 100 µM | > 100 µM | > 100 µM | > 100 µM | > 100 µM |  |  |  |  |  |  |  |  |  |  | 
20 | Cc1ccc(Oc2ccc([N+](=O)[O-])cc2[N+](=O)[O-])c(C)c1 | 79.4 µM | > 100 µM | > 100 µM | > 100 µM | > 100 µM | > 100 µM | > 100 µM | > 100 µM | > 100 µM |  |  |  |  |  |  |  |  |  |  | 
